Publication PMC7316778 (Nature Communications, 2020)
Several values for one entry are separate records, joined by “and”; a condition that tells them apart may be missing. Equal entries are not always repeated. Where two headings read alike, the source gives them in different places.

What was measured:
Experiment in all cases: SelectScreen kinase assay
HIPK2 = HIPK2 (Homo sapiens, UniProt Q9H2X6); settings: for Inhibition at 1 µM (%): HIPK2, ZLYTE, ATP Km app
Procedure: (§1) Selectivity profiling assays were performed by the Invitrogen SelectScreen™ Services. […] The concentration of ATP was selected to be equal to the KM, unless indicated otherwise.

PKMYT1 = target: T1, PKMYT1 (Homo sapiens, UniProt Q99640)
T1 sequence (Q99640 1-499): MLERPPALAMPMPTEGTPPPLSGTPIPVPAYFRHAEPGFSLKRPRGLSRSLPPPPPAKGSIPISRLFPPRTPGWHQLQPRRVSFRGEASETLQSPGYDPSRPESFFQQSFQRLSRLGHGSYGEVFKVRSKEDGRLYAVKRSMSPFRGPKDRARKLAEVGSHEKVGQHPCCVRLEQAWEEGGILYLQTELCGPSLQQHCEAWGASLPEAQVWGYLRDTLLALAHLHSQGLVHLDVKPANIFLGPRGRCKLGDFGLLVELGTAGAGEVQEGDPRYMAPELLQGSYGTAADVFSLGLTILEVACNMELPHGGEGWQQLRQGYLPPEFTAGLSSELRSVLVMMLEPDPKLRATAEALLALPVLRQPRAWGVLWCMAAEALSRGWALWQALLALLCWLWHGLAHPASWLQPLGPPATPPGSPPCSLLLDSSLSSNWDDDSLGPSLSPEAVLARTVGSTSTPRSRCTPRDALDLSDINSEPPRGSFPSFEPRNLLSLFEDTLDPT
Procedure: as §1

AAK1 = AAK1 (Homo sapiens, UniProt Q2M2I8)
AAK1, sequence (Q2M2I8 whole entry): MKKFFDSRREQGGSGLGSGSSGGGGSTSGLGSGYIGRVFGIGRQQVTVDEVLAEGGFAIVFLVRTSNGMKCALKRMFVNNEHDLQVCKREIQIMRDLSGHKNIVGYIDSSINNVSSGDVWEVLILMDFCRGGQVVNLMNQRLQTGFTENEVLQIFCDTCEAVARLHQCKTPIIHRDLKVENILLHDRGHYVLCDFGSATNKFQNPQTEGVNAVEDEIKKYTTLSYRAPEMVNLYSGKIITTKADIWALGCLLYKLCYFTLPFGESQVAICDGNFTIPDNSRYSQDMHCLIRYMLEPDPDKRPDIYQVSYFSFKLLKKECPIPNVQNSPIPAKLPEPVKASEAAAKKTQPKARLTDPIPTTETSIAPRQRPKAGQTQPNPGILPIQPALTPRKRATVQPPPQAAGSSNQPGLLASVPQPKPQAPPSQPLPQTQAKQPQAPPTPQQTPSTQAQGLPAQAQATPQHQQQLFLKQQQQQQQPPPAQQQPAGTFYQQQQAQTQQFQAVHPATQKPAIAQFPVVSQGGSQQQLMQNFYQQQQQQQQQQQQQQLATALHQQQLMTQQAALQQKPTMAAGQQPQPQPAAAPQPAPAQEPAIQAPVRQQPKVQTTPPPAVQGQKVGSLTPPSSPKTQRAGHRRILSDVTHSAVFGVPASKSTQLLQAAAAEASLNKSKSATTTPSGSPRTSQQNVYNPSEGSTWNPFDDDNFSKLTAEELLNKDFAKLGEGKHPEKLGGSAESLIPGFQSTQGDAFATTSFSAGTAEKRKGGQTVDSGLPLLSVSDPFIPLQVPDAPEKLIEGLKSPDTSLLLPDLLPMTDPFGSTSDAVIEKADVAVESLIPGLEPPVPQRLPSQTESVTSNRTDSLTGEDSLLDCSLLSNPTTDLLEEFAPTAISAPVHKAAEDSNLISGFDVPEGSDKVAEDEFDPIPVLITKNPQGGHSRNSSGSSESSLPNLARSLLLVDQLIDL
Procedure: as §1

PKN2 (PRK2) = PKN2 (PRK2) (Homo sapiens, UniProt Q16513)
PKN2 (PRK2), sequence (Q16513 whole entry): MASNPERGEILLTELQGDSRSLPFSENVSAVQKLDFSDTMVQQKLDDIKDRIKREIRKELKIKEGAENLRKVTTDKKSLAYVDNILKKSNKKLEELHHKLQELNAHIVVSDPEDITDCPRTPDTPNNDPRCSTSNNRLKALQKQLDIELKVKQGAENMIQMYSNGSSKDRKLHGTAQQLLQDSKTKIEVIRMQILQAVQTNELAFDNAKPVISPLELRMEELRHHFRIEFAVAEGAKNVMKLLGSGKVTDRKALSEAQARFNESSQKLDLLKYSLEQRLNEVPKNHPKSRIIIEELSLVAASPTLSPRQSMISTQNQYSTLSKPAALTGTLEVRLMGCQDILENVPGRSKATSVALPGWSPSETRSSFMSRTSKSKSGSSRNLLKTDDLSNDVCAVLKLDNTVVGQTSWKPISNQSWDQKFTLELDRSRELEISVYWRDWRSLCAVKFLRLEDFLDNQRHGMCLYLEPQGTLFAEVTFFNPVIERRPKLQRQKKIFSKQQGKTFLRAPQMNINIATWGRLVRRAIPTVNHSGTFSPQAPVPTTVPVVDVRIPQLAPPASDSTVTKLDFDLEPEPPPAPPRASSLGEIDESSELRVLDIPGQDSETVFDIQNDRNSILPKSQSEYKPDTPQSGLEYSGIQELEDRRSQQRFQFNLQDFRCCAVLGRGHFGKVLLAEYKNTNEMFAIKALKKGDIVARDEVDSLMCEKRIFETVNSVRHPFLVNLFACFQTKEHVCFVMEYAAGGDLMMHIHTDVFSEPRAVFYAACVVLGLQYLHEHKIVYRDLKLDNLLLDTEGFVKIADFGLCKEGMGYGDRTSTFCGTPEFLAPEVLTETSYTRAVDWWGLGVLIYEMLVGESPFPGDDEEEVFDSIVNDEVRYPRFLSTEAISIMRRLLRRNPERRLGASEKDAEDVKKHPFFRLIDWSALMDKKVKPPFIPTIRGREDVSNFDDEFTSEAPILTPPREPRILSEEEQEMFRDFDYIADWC
Procedure: as §1

MLCK (MLCK2) = target: T2, MLCK (MLCK2) (Homo sapiens, UniProt Q32MK0)
T2 sequence (Q32MK0 1-819): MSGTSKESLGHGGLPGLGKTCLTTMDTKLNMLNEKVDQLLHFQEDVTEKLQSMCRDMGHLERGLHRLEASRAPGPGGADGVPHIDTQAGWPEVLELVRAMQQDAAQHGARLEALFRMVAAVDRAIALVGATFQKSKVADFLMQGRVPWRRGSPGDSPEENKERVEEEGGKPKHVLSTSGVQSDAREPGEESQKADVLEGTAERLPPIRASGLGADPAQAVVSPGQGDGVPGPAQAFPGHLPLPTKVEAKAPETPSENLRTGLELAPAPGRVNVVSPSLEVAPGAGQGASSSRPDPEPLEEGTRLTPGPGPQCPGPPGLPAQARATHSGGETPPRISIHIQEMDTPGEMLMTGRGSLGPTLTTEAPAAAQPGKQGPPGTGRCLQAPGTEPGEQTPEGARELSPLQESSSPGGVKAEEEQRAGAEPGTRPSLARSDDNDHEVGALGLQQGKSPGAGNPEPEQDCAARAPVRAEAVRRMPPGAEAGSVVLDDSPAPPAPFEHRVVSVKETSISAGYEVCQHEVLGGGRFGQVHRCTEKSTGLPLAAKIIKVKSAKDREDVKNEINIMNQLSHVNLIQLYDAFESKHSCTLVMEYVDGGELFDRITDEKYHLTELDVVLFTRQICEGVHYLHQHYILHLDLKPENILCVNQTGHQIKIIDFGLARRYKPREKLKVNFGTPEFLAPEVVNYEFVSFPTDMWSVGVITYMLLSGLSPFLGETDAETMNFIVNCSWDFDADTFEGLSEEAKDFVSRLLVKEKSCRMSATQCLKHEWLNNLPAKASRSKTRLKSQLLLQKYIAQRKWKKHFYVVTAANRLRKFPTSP
Procedure: as §1

MST4 = MST4 (Homo sapiens, UniProt Q9P289)
MST4, sequence (Q9P289 whole entry): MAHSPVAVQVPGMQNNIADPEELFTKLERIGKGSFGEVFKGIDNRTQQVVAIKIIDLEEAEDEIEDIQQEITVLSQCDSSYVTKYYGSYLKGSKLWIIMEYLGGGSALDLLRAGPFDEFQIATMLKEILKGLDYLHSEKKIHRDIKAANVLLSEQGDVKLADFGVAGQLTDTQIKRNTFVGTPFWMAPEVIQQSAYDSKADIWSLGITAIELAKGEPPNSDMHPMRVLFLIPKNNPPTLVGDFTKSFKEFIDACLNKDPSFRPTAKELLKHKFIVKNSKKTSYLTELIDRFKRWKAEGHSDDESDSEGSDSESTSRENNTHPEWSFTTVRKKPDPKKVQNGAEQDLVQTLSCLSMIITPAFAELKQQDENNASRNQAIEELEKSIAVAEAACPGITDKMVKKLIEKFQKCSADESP
Procedure: as §1

PDK1 Direct = target: T3, PDK1 Direct (Homo sapiens, UniProt O15530)
T3 sequence (O15530 1-556): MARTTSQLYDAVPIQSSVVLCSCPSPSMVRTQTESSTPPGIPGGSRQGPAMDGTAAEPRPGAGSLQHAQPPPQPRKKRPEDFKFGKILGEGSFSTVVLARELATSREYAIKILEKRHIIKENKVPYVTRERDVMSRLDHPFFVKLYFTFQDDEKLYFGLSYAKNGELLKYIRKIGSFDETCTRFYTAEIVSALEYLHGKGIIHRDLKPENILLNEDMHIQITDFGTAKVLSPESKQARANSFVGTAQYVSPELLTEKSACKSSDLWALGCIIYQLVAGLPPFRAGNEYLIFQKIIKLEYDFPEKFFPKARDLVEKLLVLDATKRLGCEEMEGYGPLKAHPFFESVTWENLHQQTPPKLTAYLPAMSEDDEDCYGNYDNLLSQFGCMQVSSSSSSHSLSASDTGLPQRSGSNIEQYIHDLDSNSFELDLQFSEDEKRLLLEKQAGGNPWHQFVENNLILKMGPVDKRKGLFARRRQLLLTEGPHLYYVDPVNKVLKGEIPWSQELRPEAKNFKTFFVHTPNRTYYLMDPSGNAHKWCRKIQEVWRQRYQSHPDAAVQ
Procedure: as §1

NEK8 = NEK8 (Homo sapiens, UniProt Q86SG6)
NEK8, sequence (Q86SG6 whole entry): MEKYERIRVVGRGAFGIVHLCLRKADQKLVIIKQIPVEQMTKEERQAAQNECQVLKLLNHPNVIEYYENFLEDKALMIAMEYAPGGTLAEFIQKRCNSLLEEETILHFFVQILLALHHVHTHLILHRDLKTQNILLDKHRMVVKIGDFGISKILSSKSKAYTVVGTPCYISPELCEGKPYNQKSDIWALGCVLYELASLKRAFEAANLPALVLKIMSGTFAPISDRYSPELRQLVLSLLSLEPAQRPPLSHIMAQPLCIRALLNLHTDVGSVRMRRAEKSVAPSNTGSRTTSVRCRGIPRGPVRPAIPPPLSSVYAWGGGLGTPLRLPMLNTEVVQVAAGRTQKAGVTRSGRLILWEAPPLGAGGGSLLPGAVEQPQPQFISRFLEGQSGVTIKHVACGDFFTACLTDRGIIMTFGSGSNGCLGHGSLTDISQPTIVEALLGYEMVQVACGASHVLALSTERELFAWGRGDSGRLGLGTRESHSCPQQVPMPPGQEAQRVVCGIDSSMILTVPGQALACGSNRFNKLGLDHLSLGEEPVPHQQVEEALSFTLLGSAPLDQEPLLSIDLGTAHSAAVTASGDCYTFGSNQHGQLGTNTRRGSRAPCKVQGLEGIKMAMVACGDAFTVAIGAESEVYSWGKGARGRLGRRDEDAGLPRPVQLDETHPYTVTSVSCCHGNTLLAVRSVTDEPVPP
Procedure: as §1

[1] = 1 h, 1 μM WEL028, 1 h preincubation

HIPK2, sequence (Q9H2X6 whole entry): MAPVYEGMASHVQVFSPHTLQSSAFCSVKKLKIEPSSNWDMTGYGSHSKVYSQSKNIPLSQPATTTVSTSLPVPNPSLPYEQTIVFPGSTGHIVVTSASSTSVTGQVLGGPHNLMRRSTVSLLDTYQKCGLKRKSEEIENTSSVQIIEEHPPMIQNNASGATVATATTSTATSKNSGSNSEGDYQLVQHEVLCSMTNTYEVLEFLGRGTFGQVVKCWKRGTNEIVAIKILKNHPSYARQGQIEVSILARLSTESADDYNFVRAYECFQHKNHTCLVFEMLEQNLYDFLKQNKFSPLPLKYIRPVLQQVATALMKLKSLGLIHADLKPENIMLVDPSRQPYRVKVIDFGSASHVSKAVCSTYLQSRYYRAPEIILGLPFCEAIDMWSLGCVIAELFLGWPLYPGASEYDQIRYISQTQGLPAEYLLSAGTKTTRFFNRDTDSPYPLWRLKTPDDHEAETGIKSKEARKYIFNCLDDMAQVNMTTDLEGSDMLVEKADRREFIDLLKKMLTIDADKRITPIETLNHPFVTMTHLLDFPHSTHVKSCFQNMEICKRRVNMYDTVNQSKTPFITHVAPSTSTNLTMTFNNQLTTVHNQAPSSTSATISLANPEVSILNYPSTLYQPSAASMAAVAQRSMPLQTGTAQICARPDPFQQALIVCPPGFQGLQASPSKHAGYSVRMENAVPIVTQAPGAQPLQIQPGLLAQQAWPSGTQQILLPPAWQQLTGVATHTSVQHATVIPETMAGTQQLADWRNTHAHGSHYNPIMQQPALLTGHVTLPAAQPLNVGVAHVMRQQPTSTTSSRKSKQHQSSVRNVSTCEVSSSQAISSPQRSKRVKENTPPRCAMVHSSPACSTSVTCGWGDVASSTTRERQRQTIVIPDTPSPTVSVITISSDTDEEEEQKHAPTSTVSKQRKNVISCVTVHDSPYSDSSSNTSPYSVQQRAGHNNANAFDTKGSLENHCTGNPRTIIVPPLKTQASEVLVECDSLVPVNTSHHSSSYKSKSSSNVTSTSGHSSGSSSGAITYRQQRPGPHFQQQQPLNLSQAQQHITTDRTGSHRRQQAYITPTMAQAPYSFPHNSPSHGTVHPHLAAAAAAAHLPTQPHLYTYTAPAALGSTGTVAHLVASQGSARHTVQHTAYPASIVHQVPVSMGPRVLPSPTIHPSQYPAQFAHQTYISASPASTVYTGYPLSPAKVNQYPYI

## C#CCOc1ccc(Nc2ncc(Cl)c(Nc3ccccc3NC(=O)C=C)n2)c(OC)c1 [Compound 6]
HIPK2; [1]
  inhibition at 1 µM: 1%
HIPK2
  Inhibition at 1 µM (%): 2%
HIPK2; listed as WEL028, 1 µM
  Inhibition at 1 µM (%): 0%
PKMYT1; 1 μM WEL028, 1 h preincubation
  Inhibition (%): 13%
PKMYT1; PKMYT1, 1 µM, LanthaScreen Binding, listed as WEL028, 1 µM
  Inhibition at 1 µM (%): 9%
PKMYT1; read-out: Inhibition at 1 µM (%), PKMYT1, 1 µM, LanthaScreen Binding
  inhibition at 1 µM: 17%
AAK1; [1]
  inhibition at 1 µM: 33%
AAK1; AAK1, 1 µM, LanthaScreen Binding, listed as WEL028, 1 µM
  Inhibition at 1 µM (%): 30%
AAK1; read-out: Inhibition at 1 µM (%), AAK1, 1 µM, LanthaScreen Binding
  inhibition at 1 µM: 35%
PKN2 (PRK2); [1]
  inhibition at 1 µM: 8%
PKN2 (PRK2); PKN2 (PRK2), 1 µM, LanthaScreen Binding, listed as WEL028, 1 µM
  Inhibition at 1 µM (%): 9%
PKN2 (PRK2); read-out: Inhibition at 1 µM (%), PKN2 (PRK2), 1 µM, LanthaScreen Binding
  inhibition at 1 µM: 6%
MLCK (MLCK2); [1]
  inhibition at 1 µM: 9%
MLCK (MLCK2); MLCK (MLCK2), 1 µM, LanthaScreen Binding, listed as WEL028, 1 µM
  Inhibition at 1 µM (%): 8%
MLCK (MLCK2); read-out: Inhibition at 1 µM (%), MLCK (MLCK2), 1 µM, LanthaScreen Binding
  inhibition at 1 µM: 9%
MST4; [1]
  inhibition at 1 µM: 19%
MST4; MST4, 1 µM, ZLYTE, ATP Km app, listed as WEL028, 1 µM
  Inhibition at 1 µM (%): 18%
MST4; read-out: Inhibition at 1 µM (%), MST4, 1 µM, ZLYTE, ATP Km app
  inhibition at 1 µM: 21%
PDK1 Direct; [1]
  inhibition at 1 µM: 5%
PDK1 Direct; PDK1 Direct, 1 µM, ZLYTE, ATP Km app, listed as WEL028, 1 µM
  Inhibition at 1 µM (%): 3%
PDK1 Direct; read-out: Inhibition at 1 µM (%), PDK1 Direct, 1 µM, ZLYTE, ATP Km app
  inhibition at 1 µM: 6%
NEK8; [1]
  inhibition at 1 µM: 7%
NEK8; NEK8, 1 µM, LanthaScreen Binding, listed as WEL028, 1 µM
  Inhibition at 1 µM (%): 2% and 12%
